The text below walks through data of ChEMBL document CHEMBL4219226, “Terpenoids isolated from Chinese liverworts Lepidozia reptans and their anti-inflammatory activity” (Bioorg Med Chem, 2018).

The subject of assay [1] is RAW264.7. The experiment in a line: Antiinflammatory activity in mouse RAW264.7 cells assessed as inhibition of LPS-induced nitric oxide production after 24 hrs by Griess method. In kind it is functional, cell-based. The settings on record: RAW264.7, 24 h. In general terms: Nitrite, measured by Griess reagent, commonly stands in for NO production.
The test system of assay [2] is THP-1. The experiment in a line: Antiinflammatory activity in human THP1 cells assessed as inhibition of LPS-induced IL-alpha mRNA level preincubated for 1 hr followed by LPS stimulation measured after 12 hrs by qPCR method. In kind it is functional, cell-based. On the technique in general: Quantitative PCR measures a nucleic acid by following its amplification.
Assay [3] deals with THP-1. The assay is described as follows: Antiinflammatory activity in human THP1 cells assessed as inhibition of LPS-induced IL-beta mRNA level preincubated for 1 hr followed by LPS stimulation measured after 12 hrs by qPCR method. In kind it is functional, cell-based.
The subject of assay [4] is THP-1. The experiment in a line: Antiinflammatory activity in human THP1 cells assessed as inhibition of LPS-induced IL-6 mRNA level preincubated for 1 hr followed by LPS stimulation measured after 12 hrs by qPCR method. In kind it is functional, cell-based.
The subject of assay [5] is THP-1. The assay is described as follows: Antiinflammatory activity in human THP1 cells assessed as inhibition of LPS-induced TNF-alpha mRNA level preincubated for 1 hr followed by LPS stimulation measured after 12 hrs by qPCR method. In kind it is functional, cell-based.
Assay [6] concerns THP-1. The experiment in a line: Antiinflammatory activity in human THP1 cells assessed as inhibition of LPS-induced […] mRNA level at 50 to 100 uM preincubated for 1 hr followed by LPS stimulation measured after 12 hrs by qPCR method. In kind it is functional, cell-based.
For assay [7], the system named is THP-1. The experiment in a line: Antiinflammatory activity in human THP1 cells assessed as inhibition of LPS-induced COX-2 protein level at 50 to 100 uM preincubated for 1 hr followed by LPS stimulation measured after 12 hrs by Western blot method. In kind it is functional, cell-based. In general terms: A western blot detects proteins with antibodies after separation by electrophoresis.

Assay [8] addresses Transcription factor p65 (Homo sapiens) (UniProt Q04206). The experiment in a line: Inhibition of LPS-induced NFkB p65 phosphorylation in cytoplasm of human THP1 cells preincubated for 1 hr followed by LPS stimulation measured after 12 hrs by Western blot method.
Assay [9] shares this target. The experiment in a line: Inhibition of LPS-induced NFkB p65 nuclear translocation in human THP1 cells preincubated for 1 hr followed by LPS stimulation measured after 12 hrs by Western blot method. In kind it is cell-based.
Assay [10] concerns THP-1. The experiment in a line: Inhibition of LPS-induced STAT1 nuclear translocation in human THP1 cells at 50 to 100 uM preincubated for 1 hr followed by LPS stimulation measured after 12 hrs by Western blot method. In kind it is functional, cell-based.
For assay [11], the system named is THP-1. The assay is described as follows: Inhibition of LPS-induced STAT3 nuclear translocation in human THP1 cells at 50 to 100 uM preincubated for 1 hr followed by LPS stimulation measured after 12 hrs by Western blot method. In kind it is functional, cell-based.
Assay [12] has as its system THP-1. The experiment in a line: Inhibition of LPS-induced TFEB nuclear translocation in human THP1 cells at 50 to 100 uM preincubated for 1 hr followed by LPS stimulation measured after 12 hrs by Western blot method. In kind it is functional, cell-based.
Assay [13] deals with T1, Transcription factor E3 (Homo sapiens) (UniProt P19532).
T1 sequence (whole entry): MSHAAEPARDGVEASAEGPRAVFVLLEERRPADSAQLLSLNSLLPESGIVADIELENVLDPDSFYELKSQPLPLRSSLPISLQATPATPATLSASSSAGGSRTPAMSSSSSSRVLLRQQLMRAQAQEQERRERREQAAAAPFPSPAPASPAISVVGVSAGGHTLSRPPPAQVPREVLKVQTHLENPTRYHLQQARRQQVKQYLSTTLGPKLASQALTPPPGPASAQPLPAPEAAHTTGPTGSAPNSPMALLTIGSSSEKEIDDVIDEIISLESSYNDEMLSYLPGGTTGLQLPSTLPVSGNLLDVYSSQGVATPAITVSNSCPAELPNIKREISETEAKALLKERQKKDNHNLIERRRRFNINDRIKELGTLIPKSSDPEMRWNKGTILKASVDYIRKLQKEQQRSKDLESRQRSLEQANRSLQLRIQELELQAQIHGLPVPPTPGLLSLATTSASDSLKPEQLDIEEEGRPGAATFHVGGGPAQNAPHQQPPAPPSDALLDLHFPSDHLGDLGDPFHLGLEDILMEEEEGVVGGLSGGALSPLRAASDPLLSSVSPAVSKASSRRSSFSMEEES
The experiment in a line: Inhibition of LPS-induced TFE3 nuclear translocation in human THP1 cells at 50 to 100 uM preincubated for 1 hr followed by LPS stimulation measured after 12 hrs by Western blot method. In kind it is cell-based.

Assay [14] has as its target T1, Transcription factor E3 (Homo sapiens). The experiment in a line: Inhibition of GFP-fused TFE3 (unknown origin) expressed in HEK293T cells assessed as reduction in LPS-induced TFE3 nuclear translocation at 100 uM preincubated for 1 hr followed by LPS stimulation measured after 12 hrs by DAPI staining based confocal microscopic method. In kind it is cell-based.
The target of assay [15] is Transcription factor p65 (Homo sapiens) (UniProt Q04206). The experiment in a line: Inhibition of GFP-fused NFkB p65 (unknown origin) expressed in HEK293T cells assessed as reduction in LPS-induced p65 nuclear translocation at 100 uM preincubated for 1 hr followed by LPS stimulation measured after 12 hrs by DAPI staining based confocal microscopic method. In kind it is cell-based.

Assay [16] has as its system RAW264.7. The experiment in a line: Cytotoxicity against mouse RAW264.7 cells assessed as reduction in cell viability by MTT assay. In kind it is cell-based.
For assay [17], the system named is THP-1. The assay is described as follows: Antiinflammatory activity in human THP1 cells assessed as inhibition of LPS-induced […] mRNA level at 12 to 25 uM preincubated for 1 hr followed by LPS stimulation measured after 12 hrs by qPCR method. In kind it is functional, cell-based.
The target of assay [18] is T1, Transcription factor E3 (Homo sapiens). The assay is described as follows: Inhibition of LPS-induced TFE3 nuclear translocation in human THP1 cells at 12 to 25 uM preincubated for 1 hr followed by LPS stimulation measured after 12 hrs by Western blot method. In kind it is cell-based.

The source made the active and inactive calls. The calls are words filed in the database; no cut-off is given here.

By IC50 is commonly meant the concentration needed to halve the response being measured.

Transcription factor p65 (Homo sapiens), sequence (Q04206 whole entry, the tested form may be a part): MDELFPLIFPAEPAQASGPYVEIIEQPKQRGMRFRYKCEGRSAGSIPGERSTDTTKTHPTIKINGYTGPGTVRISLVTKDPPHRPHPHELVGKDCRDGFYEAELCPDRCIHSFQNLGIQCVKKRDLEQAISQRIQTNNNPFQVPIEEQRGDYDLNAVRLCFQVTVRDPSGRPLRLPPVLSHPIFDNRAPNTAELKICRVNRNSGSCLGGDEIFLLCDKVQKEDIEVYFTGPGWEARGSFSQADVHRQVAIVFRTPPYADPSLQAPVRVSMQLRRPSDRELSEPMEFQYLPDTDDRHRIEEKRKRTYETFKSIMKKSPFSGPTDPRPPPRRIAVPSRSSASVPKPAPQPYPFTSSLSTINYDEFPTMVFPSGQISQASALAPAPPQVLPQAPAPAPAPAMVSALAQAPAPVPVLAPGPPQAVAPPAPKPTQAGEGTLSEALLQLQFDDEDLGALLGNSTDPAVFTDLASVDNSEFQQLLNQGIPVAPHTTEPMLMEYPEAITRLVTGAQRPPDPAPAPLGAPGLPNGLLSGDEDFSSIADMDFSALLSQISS

With `C/C1=C/C(=O)C/C(C)=C/C[C@]2(C)CC[C@](O)(C(C)C)[C@H]2CC1`, the IC50 in assay [1] is 34.9 µM; in [16], greater than 100 µM. Moreover, the inhibition entry in assay [2], in assay [3], in [4], in [5], in [8] and in assay [9] was “Dose-dependent effect” each time. Further, the inhibition result in assay [6], in assay [7], in assay [13], in [14] and in assay [15] was “Active” throughout. Besides, the inhibition entry in assay [10], in [11] and in assay [12] was “inactive” in each case.

For `O=c1cc(-c2ccc(O)c(O)c2)oc2cc(O)cc(O)c12` [LUTEOLIN], the values for the half-inhibitory concentration (IC50) in [1] and in [16] were 14.4 µM and greater than 50 µM, respectively. For the same compound, the inhibition result in assay [17] and in assay [18] was “Active” each time.

Consider `CC1=C(C)C(=O)C(CC[C@@](C)(O)CCC[C@@H](C)CCC[C@@H](C)CCCC(C)C)=C(C)C1=O`, for which the IC50 in assay [1] and in assay [16] was greater than 100 µM throughout.
